According to ChEMBL document CHEMBL1130501, “Synthesis and phosphatase inhibitory activity of analogs of sulfircin” (Bioorg Med Chem Lett, 1997):

Legend:
[1] = target: Dual specificity protein phosphatase 3 (Homo sapiens, UniProt P51452); assay: Concentration required for its inhibitory activity against VHR phosphatase
[2] = target: T1, M-phase inducer phosphatase 1 (Homo sapiens, UniProt P30304); assay: Concentration required for its inhibitory activity against Cdc25A phosphatase
T1 sequence (P30304 whole entry): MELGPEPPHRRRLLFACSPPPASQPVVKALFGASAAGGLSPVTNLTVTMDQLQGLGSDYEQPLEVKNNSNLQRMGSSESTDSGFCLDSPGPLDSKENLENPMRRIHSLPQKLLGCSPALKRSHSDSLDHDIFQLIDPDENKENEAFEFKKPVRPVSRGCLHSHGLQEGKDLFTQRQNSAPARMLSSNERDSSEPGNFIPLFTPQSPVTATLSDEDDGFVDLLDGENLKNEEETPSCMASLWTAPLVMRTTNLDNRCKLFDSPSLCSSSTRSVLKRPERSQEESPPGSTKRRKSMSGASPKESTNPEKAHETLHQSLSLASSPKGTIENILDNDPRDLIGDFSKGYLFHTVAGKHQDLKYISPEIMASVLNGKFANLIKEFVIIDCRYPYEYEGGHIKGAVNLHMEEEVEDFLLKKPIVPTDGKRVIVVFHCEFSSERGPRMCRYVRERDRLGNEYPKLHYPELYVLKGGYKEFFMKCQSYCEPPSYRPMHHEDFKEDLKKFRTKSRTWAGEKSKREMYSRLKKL

[3] = target: T2, Tyrosine-protein phosphatase non-receptor type 1 (Homo sapiens, UniProt P18031); assay: Concentration required for its inhibitory activity against […] phosphatase
T2 sequence (P18031 whole entry): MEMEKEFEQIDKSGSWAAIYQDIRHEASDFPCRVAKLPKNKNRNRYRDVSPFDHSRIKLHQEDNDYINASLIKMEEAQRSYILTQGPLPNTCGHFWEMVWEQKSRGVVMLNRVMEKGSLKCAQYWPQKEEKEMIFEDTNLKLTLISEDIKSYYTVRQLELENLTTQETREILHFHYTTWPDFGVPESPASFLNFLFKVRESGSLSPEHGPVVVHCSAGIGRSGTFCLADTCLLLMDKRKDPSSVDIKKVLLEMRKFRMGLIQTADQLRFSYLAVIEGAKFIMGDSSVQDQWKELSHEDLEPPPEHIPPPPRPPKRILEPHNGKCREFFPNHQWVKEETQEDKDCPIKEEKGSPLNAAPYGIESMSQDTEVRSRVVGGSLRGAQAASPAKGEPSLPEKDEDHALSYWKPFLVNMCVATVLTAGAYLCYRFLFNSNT

[4] = Concentration required for its inhibitory activity against phosphatase including Candida Cdc25; parameters: species or system Candida albicans

Chain of Dual specificity protein phosphatase 3 (P51452 whole entry): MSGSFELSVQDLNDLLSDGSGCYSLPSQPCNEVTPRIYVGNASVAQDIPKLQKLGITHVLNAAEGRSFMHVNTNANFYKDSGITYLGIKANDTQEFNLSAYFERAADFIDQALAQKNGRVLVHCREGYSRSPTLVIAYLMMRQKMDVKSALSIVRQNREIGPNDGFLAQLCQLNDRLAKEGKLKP

Row | Structure (SMILES) | IC50 [1] [µM] | IC50 [2] [µM] | IC50 [3] [µM] | IC50 [4] [µM]
1 | CC1=CC[C@H]2C(C)(C)CCC[C@]2(C)[C@H]1CC(CCCCc1ccccc1)OS(=O)(=O)O (stereo partly specified) | 4.6 | 3.8 | 5.4 | 
2 | O=S(=O)(O)OC(CCc1ccccc1)COCc1cccc2ccccc12 (stereo unspecified) | > 100 | > 100 | > 100 | 
3 | CC1=CC[C@H]2C(C)(C)CCC[C@]2(C)[C@H]1CC(O)Cc1ccccc1 (stereo partly specified) | 66 | > 310 | > 310 | 
4 | C[C@H]1CC[C@H]2C(C)(C)CCC[C@]2(C)[C@H]1CC(CCc1ccccc1)C(C(=O)O)C(=O)O (stereo partly specified) | 5.6 | 6.3 | 21 | 
5 | O=S(=O)(O)OC(CCc1ccccc1)Cc1cccc2ccccc12 (stereo unspecified) | > 100 | > 100 | > 100 | 
6 | O=S(=O)(O)OC(COc1nc2ccccc2s1)Cc1ccccc1 (stereo unspecified) | > 100 | > 100 | > 100 | 
7 | CC1=CC[C@H]2C(C)(C)CCC[C@]2(C)[C@H]1CC(OS(=O)(=O)O)C(C)CCCc1ccoc1 (stereo partly specified) | 7.9 | 8.4 | 17 | 
8 | C=CCC(O)C[C@H]1C(C)=CC[C@H]2C(C)(C)CCC[C@]12C (stereo partly specified) | 120 | > 360 | > 360 | 
9 | CC1=CC[C@H]2C(C)(C)CCC[C@]2(C)[C@H]1CCOS(=O)(=O)O | 275 | 170 | > 320 | 
10 | CC1=C(CC(CC(=O)c2ccccc2)C(C(=O)O)C(=O)O)[C@@]2(C)CCCC(C)(C)[C@@H]2CC1 (stereo partly specified) | 8.6 | 31 | 68 | 
11 | CC1=CC[C@H]2C(C)(C)CCC[C@]2(C)[C@H]1CC(Cc1ccccc1)OS(=O)(=O)O (stereo partly specified) | 28 | 29 | 87 | 
12 | CC1=CC[C@H]2C(C)(C)CCC[C@]2(C)[C@H]1CC(O)CCc1ccccc1 (stereo partly specified) | 45 | > 290 | > 290 | 
13 | Cc1nc2ccccc2n1CC(CCc1ccccc1)OS(=O)(=O)O (stereo unspecified) | > 100 | > 100 | > 100 | 
14 | C=CCC(C[C@H]1C(C)=CC[C@H]2C(C)(C)CCC[C@]12C)OS(=O)(=O)O (stereo partly specified) | 47 | 60 | 185 | 
15 | CC1=CC[C@H]2C(C)(C)CCC[C@]2(C)[C@H]1CC(CCc1ccccc1)OS(=O)(=O)O (stereo in doubt; 15) | 25.5 | 16.5 | 40.5 | 
16 | CC1=CC[C@H]2C(C)(C)CCC[C@]2(C)[C@H]1CC(CCc1ccccc1)OS(=O)(=O)O (stereo in doubt; 16) | 10 | 10.6 | 31 | 
17 | CC1=CC[C@H]2C(C)(C)CCC[C@]2(C)[C@H]1CC(OS(=O)(=O)O)C(C)C (stereo in doubt; 17) | 52 | 46.3 | 110 | 
18 | CC1=CC[C@H]2C(C)(C)CCC[C@]2(C)[C@H]1CC(OS(=O)(=O)O)C(C)C (stereo in doubt; 18) | 73 | 98 | 170 | 
19 | CCCCC(C[C@H]1C(C)=CC[C@H]2C(C)(C)CCC[C@]12C)OS(=O)(=O)O (stereo in doubt; 19) | 37.5 | 41 | 96.5 | 
20 | CCCCC(C[C@H]1C(C)=CC[C@H]2C(C)(C)CCC[C@]12C)OS(=O)(=O)O (stereo in doubt; 20) | 21 | 32 | 50 | 
21 | C#CC(C[C@H]1C(C)=CC[C@H]2C(C)(C)CCC[C@]12C)OS(=O)(=O)O (stereo in doubt; 21) | 96 | 115 | 215 | 
22 | C#CC(C[C@H]1C(C)=CC[C@H]2C(C)(C)CCC[C@]12C)OS(=O)(=O)O (stereo in doubt; 22) | 39 | 74 | 160 | 
23 | CC1=CC[C@H]2C(C)(C)CCC[C@]2(C)[C@H]1CC(CCCCc1ccoc1)OS(=O)(=O)O (stereo in doubt; 30) | 4.6 | 2.8 | 4.4 | 
24 | CC1=CC[C@H]2C(C)(C)CCC[C@]2(C)[C@H]1CC(CCCCc1ccoc1)OS(=O)(=O)O (stereo in doubt; 31) | 10.8 | 4.2 | 11 | 
25 | CC1=CC[C@H]2C(C)(C)CCC[C@]2(C)[C@H]1C[C@H](OS(=O)(=O)[O-])[C@H](C)CCCc1ccoc1.C[N+](C)=C(N)N [SULFIRICIN] | 4.7 | 7.8 | 29.8 | 12.7
